Legend:
[1] = molecular target: mutant E. coli gamma-GK encoded by the proB74 allele (Escherichia coli, UniProt P0A7B5, D107N); conditions: proB74 mutant form of the bacterial enzyme
Experimental: (§1) FIG. 3 is a graph illustrating feedback inhibition of delta^1 -pyrroline-5-carboxylate synthetase by proline. Ammonium sulfate-fractionated extracts from E. coli CSH26 (.circle-solid.), E. coli CSH26 harboring PVAB2 (.smallcircle.), the proB74 allele (.orgate.), and the wild-type proB allele (.quadrature.) were assayed for gamma-GK activity by the method of Hayzer and Leisinger, J. Gen. Microbiol., 118, 1980, pp. 287-293.
(§2) P5CS has GSA dehydrogenase and gamma-GK activities, and the gamma-GK activity is feedback inhibited by proline. To confirm that the presently claimed sequence, PVAB2 of FIGS. 1A, 1B, 1C and 1D, encoded P5CS activity, ammonium sulfate-fractionated extracts of E. coli CSH26 and CSH26 harboring PVAB2 were assayed for GSA dehydrogenase-dependent gamma-GK enzyme activity. […] Because proline production is regulated by end-product inhibition of gamma-GK in bacteria, the plant enzyme P5CS was similarly subjected to feed-back control testing. […] The mutation responsible for the resistance to end-product inhibition of the gamma-GK in the proB 74 allele involves a substitution of an A for a G nucleotide, resulting in a change from aspartic acid to asparagine residue at position 107.
E. coli CSH26 cells and CSH26 harboring different plasmids were grown aerobically at 37° C. for about 16 hours. […]

[2] = system: wild-type E. coli gamma-GK; assay: biochemical; conditions: more sensitive than Vigna enzyme
Experimental: as §1, §2
(§3) E. coli CSH26 cells and CSH26 harboring different plasmids were grown aerobically at 37° C. for about 16 hours. The cells were harvested by centrifugation at 4,000× g for 10 minutes, and the cell paste resulting was suspended in 4 ml of buffer A (50 mM Tris-Hcl, 1 mM dithiothreitol) at […] Following sonication, (Benson Sonifier, Type 450) at 50 watts, the slurry was centrifuged at 4,000× g for 10 minutes and the supernatant fractionated by ammonium sulfate precipitation. For E. coli CSH26 containing PVAB2, the fraction precipitating between 0 and 30% saturation of ammonium sulfate was used for enzyme assay.

[3] = molecular target: T1, wild-type E. coli gamma-GK (Escherichia coli, UniProt P0A7B5); assay: biochemical
T1 construct: made in house; host or cells: E. coli CSH26 harboring the wild-type proB allele (plasmid pDU1 from A. Dandekar); ammonium sulfate fraction 40-60%
T1 sequence (P0A7B5 whole entry): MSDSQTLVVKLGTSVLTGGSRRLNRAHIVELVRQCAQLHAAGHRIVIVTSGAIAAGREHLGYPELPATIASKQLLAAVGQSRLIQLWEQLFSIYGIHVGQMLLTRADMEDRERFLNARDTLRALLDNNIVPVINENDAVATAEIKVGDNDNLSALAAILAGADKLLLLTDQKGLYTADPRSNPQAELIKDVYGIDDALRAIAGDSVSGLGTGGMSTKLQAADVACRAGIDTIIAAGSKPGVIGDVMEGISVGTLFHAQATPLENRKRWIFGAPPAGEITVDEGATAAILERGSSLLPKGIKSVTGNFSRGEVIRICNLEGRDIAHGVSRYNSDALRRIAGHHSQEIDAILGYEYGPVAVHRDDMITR
Experimental: as §1, §2, §3

[4] = molecular target: Vigna aconitifolia delta1-pyrroline-5-carboxylate synthetase (P5CS) (Vigna aconitifolia, UniProt P32296); assay: biochemical
Sequence of Vigna aconitifolia delta1-pyrroline-5-carboxylate synthetase (P5CS) (P32296 whole entry): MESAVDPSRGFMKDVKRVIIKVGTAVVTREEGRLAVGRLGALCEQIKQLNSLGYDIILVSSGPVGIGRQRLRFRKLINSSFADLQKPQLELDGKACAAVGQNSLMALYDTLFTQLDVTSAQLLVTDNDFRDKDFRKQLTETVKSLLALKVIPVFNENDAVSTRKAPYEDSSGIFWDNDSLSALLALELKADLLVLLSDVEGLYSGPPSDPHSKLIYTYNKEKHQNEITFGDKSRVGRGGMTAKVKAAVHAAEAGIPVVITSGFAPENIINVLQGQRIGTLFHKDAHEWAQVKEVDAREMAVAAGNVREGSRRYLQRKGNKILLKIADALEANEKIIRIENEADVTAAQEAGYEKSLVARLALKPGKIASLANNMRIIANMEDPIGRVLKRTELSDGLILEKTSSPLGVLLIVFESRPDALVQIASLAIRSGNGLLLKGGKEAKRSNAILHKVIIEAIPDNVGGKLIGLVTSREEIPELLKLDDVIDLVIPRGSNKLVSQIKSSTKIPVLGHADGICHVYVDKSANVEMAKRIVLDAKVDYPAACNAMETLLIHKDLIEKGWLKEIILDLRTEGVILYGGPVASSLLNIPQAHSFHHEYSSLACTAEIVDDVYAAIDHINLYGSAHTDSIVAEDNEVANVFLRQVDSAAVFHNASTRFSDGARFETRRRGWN
Experimental: as §1, §2, §3

Sequence of mutant E. coli gamma-GK encoded by the proB74 allele (P0A7B5 whole entry D107N): as the sequence (P0A7B5 whole entry) above, with D107N counted along it

## O=C(O)[C@@H]1CCCN1 [proline]
[1]
  sensitivity to end product (proline) inhibition, fold less sensitive: approximately 200 fold
[2]
  sensitivity to proline of wild-type E. coli gamma-GK relative to the Vigna enzyme: 30 times
[3]
  IC50: 0.2 mM
[4]
  IC50: 6 mM
